Each block holds one compound with its values, some of them ahead of it. Non-standard residues stand in square brackets, D forms with d. Residues, ends and D or L forms follow the SMILES beside them.
Experiments:
[1] = molecular target: T1, hGPR37L1 (Homo sapiens, UniProt O60883); experiment: Lipid-coated bead pull-down assay with hGPR37L1-expressing cells; format: binding; set-up: expressed in transfected cells; host or cells: HEK293 Flp-In cells; details: Western blot
T1 sequence (O60883 26-481): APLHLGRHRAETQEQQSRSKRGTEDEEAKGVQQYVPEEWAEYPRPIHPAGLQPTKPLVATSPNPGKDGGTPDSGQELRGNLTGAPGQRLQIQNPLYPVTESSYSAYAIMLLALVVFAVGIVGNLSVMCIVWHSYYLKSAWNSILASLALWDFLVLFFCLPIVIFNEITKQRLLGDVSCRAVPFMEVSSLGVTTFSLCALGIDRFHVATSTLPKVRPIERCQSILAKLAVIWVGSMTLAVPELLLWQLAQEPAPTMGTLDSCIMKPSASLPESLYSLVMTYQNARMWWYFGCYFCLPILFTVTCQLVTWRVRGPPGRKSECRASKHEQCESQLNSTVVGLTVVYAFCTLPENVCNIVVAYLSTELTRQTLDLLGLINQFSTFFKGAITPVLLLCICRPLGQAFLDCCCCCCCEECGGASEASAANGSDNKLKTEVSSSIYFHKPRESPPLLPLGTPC
Method: Lipid pull-down assay: Isolated membrane proteins were pre-adsorbed to uncoated control agarose beads (Vector Laboratories, Burlingame, CA); the unbound fraction was collected and incubated 24 hrs at 4° C. with lipid-coated agarose beads (S. Bang et al., GPR37 regulates macrophage phagocytosis and resolution of inflammatory pain. J Clin Invest 128, 3568-3582 (2018)). After extensive washing, bound proteins were eluted from the lipid-coated beads, suspended in Laemmli buffer containing 2% SDS (w/v) and 0.3-M β-mercaptoethanol (Sigma-Aldrich, St. Louis, MO), and heated 5 min at 95° C. to dissolve proteins before separation on 4-20% polyacrylamide/SDS gels as outlined above. The lysate proteins were detected by western blot.
Western blot: GPR37L1 proteins were isolated from transfected cells, lipid pull-down beads, and mouse DRG. The cells were placed on ice, washed with ice-cold phosphate-buffered saline (PBS), and harvested with ice-cold RIPA buffer (Sigma-Aldrich, St. Louis, MO) with Protease Inhibitor Cocktail Tablet (pH 7.4) (Roche Diagnostics, Indianapolis, IN). The cell lysates were centrifugated for removing insoluble debris and were calculated by BCA assay for detection of protein level, and the supernatant was mixed with 4× Laemmli buffer (Bio-Rad, Hercules, CA) and boiling. Protein samples were […] on 4-15% gradient SDS-PAGE gel (Bio-Rad, Hercules, CA) and blotted on PVDF membrane (Bio-Rad, Hercules, CA). Ponceau S staining was used for the detection of total proteins. The primary antibody was incubated with PBS+1% BSA at 4° C. overnight. We used the following primary antibodies: anti-GPR37L1 antibody (Bioss (Woburn, MA), Rabbit, 1:1000, #bs-15390R); anti-GAPDH antibody (Proteintech (Rosemont, IL), mouse, 1:2000, #60004); and anti-flag antibody (Cell Signaling Technologies (Danvers, MA), Rabbit, 1:1000, #14793). Blots were further incubated with an […] secondary anti-rabbit antibody (Jackson ImmunoResearch Laboratories (West Grove, PA), donkey, 1:5000), developed in ECL solution (Pierce Biotechnology, Appleton, WI)), and visualized in ChemiDoc XRS (Bio-Rad, Hercules, CA). Protein signal intensity was quantified by Image J software (NIH).
Next, a lipid-coated bead pull-down assay with hGPR37L1-expressing cells was used to confirm whether MaR1 would interact with GPR37L1 protein selectively. […] The right molecule size of GPR37L1 (˜50 kDa) was also validated by the anti-FLAG antibody (data not shown; see U.S. Prov. No. 63/270,198, FIG. 3E).

[2] = molecular target: T1, hGPR37L1; experiment: Beta-arrestin assay (PathHunter hGPR37L1 CHO-K1); format: cell-based; details: hGPR37L1 ChoK1 cells, n=6; for β-arrestin signaling: 0.1 nM to 100 nM; for EC50: read-out: EC50 of β-arrestin response
Method: Beta-arrestin assay: To screen for GPR37L1 ligands, the PathHunter® eXpress GPR37L1 CHO-K1 kit was purchased from Eurofins Discoveryone™ (DiscoverX Solutions for Drug Discovery, Fremont, CA; Cat #93-0378E2ACP1M). CHO-K1 cells express human GPR37L1 and were grown in 96-well plates for 48 hours. Lipid compounds were incubated with the ChoK1 cells for 1 hour at 37° C., and GPR37L1 activation was determined by measuring chemiluminescence using the beta-arrestin 2 (β-arrestin) detection kit (DiscoverX Solutions for Drug Discovery, Fremont, CA). The luminescent activity was measured using an Infinite F200 Pro Illuminometer (Tecan Trading AG, Switzerland).
Eight different concentrations of compounds ranging from 0.1 nM to 100 nM were tested.

[3] = system: neuron-glia mixed cultures from DRG; experiment: IL-1β release in SGC-neuron co-cultures from DRG (ELISA); format: cell-based, mouse; details: 1 μM for 24 h
Method: SGC and neuron co-culture: DRG were collected from wild-type (WT) or knock-out (KO) mice (8 weeks male) and incubated in 1 mg/ml Collagenase/Dispase (Roche Diagnostics, Madison, WI, USA) at 37° C. for 60 min, with agitation at 100 revolutions per minute (RPM) and then followed by incubation in 0.05% trypsin/EDTA for 10 min. The digestion enzymes were prepared in Dulbecco's modified Eagle medium/F12 with GlutaMAX (ThermoFisher, Waltham, MA). After incubation of 0.1% trypsin inhibitor and centrifugation (300 G), the cell pellet was gently triturated in a neurobasal medium containing […]. Dissociated DRG cells were seeded on non-coated culture dishes for 4 hrs. SGC and neurons were included for co-culture by hand-shaking of the culture flasks gently for 5 to 10 min and then resuspended by replacing with a new neurobasal medium. The attached glial-like cells were cultured in the DMEM/F12 medium containing 10% fetal bovine serum and 1% streptomycin/penicillin to promote cell growth and inhibition of differentiation. After 2 to 6 days, the glial-like cells were differentiated by application of the serum-free neural basal medium. […]

[4] = system: Kir4.1 potassium channels in SGCs; experiment: Patch-clamp recordings of K+ currents in SGCs of whole-mount DRG; format: cell-based, mouse
Method: Patch-clamp recordings in SGCs of whole-mount DRG: Under urethane anesthesia, mice were rapidly euthanized, followed by careful isolation of lumbar DRGs placed in the oxygenated artificial cerebral spinal fluid (aCSF). DRGs were briefly digested (20 min) using an enzymatic mixture consisting of collagenase A (1 mg/mL) and 0.32 mL Trypsin (0.25% original solution). Intact DRG were then incubated in aCSF oxygenated with 95% O2 and 5% CO2 at 34° C. Following incubation, DRG were transferred to a recording chamber. Isolated DRGs were transferred to a recording chamber continuously perfused (˜3 ml/min) with aCSF. SGCs in whole mouse DRGs could be visualized using a 40× water-immersion objective on an Olympus BX51WI microscope (Olympus Corp., Shinjuku, Japan). The round or fusiform-shaped cell bodies of SGCs were small (<10 μm) but visible near the edges of DRG neurons. Patch pipettes (Chase Scientific Glass Inc., Ramsey, MN) were pulled and filled with a pipette solution containing: 126 mM potassium gluconate, 10 mM NaCl, 1 mM MgCl2, 10 mM EGTA, 2 mM Na-ATP, and 0.1 mM Mg-GTP, adjusted to pH 7.3 with KOH. The resistance of pipettes was 10-12 MΩ. A Whole-cell patch-clamp configuration was made on SGCs at room temperature using a Multiclamp 700B amplifier (Axon Instruments, Union City, CA). Under voltage clamp, at a holding potential of −80 mV, inward or outward currents are triggered by voltage steps of −160 to +40 mV, with 20 mV increment in 200 ms (H. Zhang et al., Altered functional properties of satellite glial cells in compressed spinal ganglia. Glia 57, 1588-1599 (2009)). To isolate inwardly rectifying potassium current (Kir), potassium currents from the same cells were recorded in the absence and presence of 100 μM extracellular barium, which blocks the Kir4.1 channel (C. A. Doupnik, et al, The inward rectifier potassium channel family. Curr Opin Neurobiol 5, 268-277 (1995); X. Tong et al., Astrocyte Kir4.1 ion channel deficits contribute to neuronal dysfunction in Huntington's disease model mice. Nat Neurosci 17, 694-703 (2014)). The Kir4.1 currents were obtained by digitally subtracting those currents in the absence and presence of barium.
Kir4.1 potassium channels are the predominant potassium channels in SGCs and are chiefly responsible for the potassium currents in SGCs. Dysregulation of SGC Kir4.1 contributes to the pathogenesis of pain (M. Hanani, D. C. Spray, Emerging importance of satellite glia in nervous system function and dysfunction. Nat Rev Neurosci 21, 485-498 (2020)). SGC K^+ currents were recorded by conducting patch-clamp recordings in SGCs in whole-mount DRG preparation (data not shown; see U.S. Prov. No. 63/270,198, FIG. 7A), collected from WT mice, Gpr37l1^+/+ mice, and Gpr37l1^+/− mutant mice (FIG. 11A parts A-C).

Compound: CC/C=C\C/C=C\C/C=C\C/C=C\C/C=C\C/C=C\CCC(=O)O [DHA, reference compound]
GPR37L1 binding in lipid-coated bead pull-down extracts [1]: not binding

Compound: CC(=O)O[C@H]1C(=O)[C@@]2(C)[C@H]([C@H](OC(=O)c3ccccc3)[C@]3(O)C[C@H](OC(=O)[C@H](O)[C@@H](NC(=O)c4ccccc4)c4ccccc4)C(C)=C1C3(C)C)[C@]1(OC(C)=O)CO[C@@H]1C[C@@H]2O [PTX, paclitaxel, reference compound]
IL-1β secretion in culture medium [3]: marked increase | effect on K+ currents in SGCs ([4]; 1 μM, 60 min, WT-DRG): substantial reduction

Compound: CC/C=C\C[C@H](O)/C=C/C=C\C=C\C=C\[C@@H](O)[C@@H](O)C/C=C\CCC(=O)O [RvD1]
GPR37L1 binding in lipid-coated bead pull-down extracts [1]: not binding

Compound: CC/C=C\C[C@H](O)[C@H](O)/C=C/C=C/C=C\C=C\[C@@H](O)C/C=C\CCC(=O)O [RvD2]
GPR37L1 binding in lipid-coated bead pull-down extracts [1]: not binding

Compound: Barium [reference compound]
effect on total K+ currents in SGCs ([4]; 100 μM): largely blocked

The remaining lines, values ahead:

β-arrestin signaling [2]: 1.8 fold increase | EC50 [2]: 1.74 nM | GPR37L1 binding in lipid-coated bead pull-down extracts [1]: some weak binding
Compound: CC/C=C\C[C@H](O)\C=C/C=C/C=C/[C@H](O)C/C=C\C/C=C\CCC(=O)O [NPD1, Neuroprotectin D1]

β-arrestin signaling [2]: 3.71 fold increase | EC50 [2]: 9.8 nM
Compound: CC[C@H](C)[C@H](NC(=O)[C@H](CCC(=O)O)NC(=O)[C@H](CCC(=O)O)NC(=O)[C@@H](NC(=O)[C@H](C)NC(=O)[C@H](CC(N)=O)NC(=O)[C@H](CC(N)=O)NC(=O)[C@H](CC(=O)O)NC(=O)[C@@H](NC(=O)[C@H](CC(C)C)NC(=O)[C@@H](C)NC(=O)[C@@H](N)[C@@H](C)O)[C@@H](C)CC)[C@@H](C)O)C(=O)N[C@@H](CC(C)C)C(=O)N[C@@H](Cc1ccc(O)cc1)C(=O)O [TX14, reference compound] (H-T[dA]LIDNNATEEILY-OH; N-terminus and C-terminus assumed)

Source: patent US20250000834A1, “COMPOSITIONS AND METHODS FOR TARGETING GPCR FOR THE PREVENTION AND TREATMENT OF PAIN” (Duke University, priority 2021, published 2025)
